Data on 15 compounds can be found in PMC6463675, “Panax ginseng Inhibits Metabolism of Diester Alkaloids by Downregulating CYP3A4 Enzyme Activity via the Pregnane X Receptor” (Evidence-based Complementary and Alternative Medicine : eCAM, 2019).

One data set relates to PXR. The arrangement: method as in PMID 23600156. The settings on record: previous work of the authors; cited from earlier work.
The test system of data set [1] is CYP3A4. In words: Cocktail method: pharmacokinetics of probe drug midazolam after P. ginseng. The settings on record: rats, ketoconazole 40 mg·kg^−1 intraperitoneal 3 days, midazolam 10 mg·kg^−1 caudal vein.
The target in data set [2] is T1, CYP3A4 (Homo sapiens, UniProt P08684). The data set can be described thus: Kinetic analysis in recombinant human CYP3A4. On the set-up: purchased Corning 456202; host or cells: baculovirus infected insect cells (BTI-TN-5B1-4). The settings on record: for in vitro mean intrinsic clearance rate by CYP3A4: CLint = Vmax/KM. Type of data set: in vitro ADME. The text has this:
(§1) Recombinant human cytochrome P450 enzymes were obtained from Corning (USA, CYP3A4:456202; CYP1A2:456203; CYP2C9:456218; CYP2E1:456206). The activity were catalyzed by CYP3A4/CYP1A2/CYP2C9/CYP2E1, which were expressed from human CYP3A4/CYP1A2/CYP2C9/CYP2E1 cDNA, respectively, using a baculovirus expression system. Baculovirus infected insect cells (BTI-TN-5B1-4) were used to prepare these microsomes. These microsomes also contain cDNA-expressed humans P450 reductase and human cytochrome b5. A microsome preparation using wild type virus (Catalog No. 456201) was used as a control for native activities.
(§2) The kinetic parameters for the metabolism of aconitine, mesaconitine, and hypaconitine were determined by incubating increasing concentrations of aconitine, mesaconitine, and hypaconitine (5, 10, 20, and 40 μM) at 37°C for 90min with recombinant human CYP isoforms and NADPH under the incubation conditions described above. Precooled acetonitrile/methanol (800 μL, 1:1, v/v) was added to stop the incubation.
The compound reaction velocity (V) is expressed as V = (C0 – Ct)/T/Cp, where C0 and Ct are the initial and final concentrations of aconitine, mesaconitine, or hypaconitine in the incubation solution, respectively, T is the incubation time (min), and Cp is the protein concentration (mg·mL^−1 or nmol). The mean intrinsic clearance rate (CLint) for the in vitro incubation was estimated using Vmax/KM, where Vmax is the maximum velocity and KM is the Michaelis constant. All values are expressed as the mean ± standard deviation (SD).
Target sequence in this assay (P08684 2-503 limits assumed): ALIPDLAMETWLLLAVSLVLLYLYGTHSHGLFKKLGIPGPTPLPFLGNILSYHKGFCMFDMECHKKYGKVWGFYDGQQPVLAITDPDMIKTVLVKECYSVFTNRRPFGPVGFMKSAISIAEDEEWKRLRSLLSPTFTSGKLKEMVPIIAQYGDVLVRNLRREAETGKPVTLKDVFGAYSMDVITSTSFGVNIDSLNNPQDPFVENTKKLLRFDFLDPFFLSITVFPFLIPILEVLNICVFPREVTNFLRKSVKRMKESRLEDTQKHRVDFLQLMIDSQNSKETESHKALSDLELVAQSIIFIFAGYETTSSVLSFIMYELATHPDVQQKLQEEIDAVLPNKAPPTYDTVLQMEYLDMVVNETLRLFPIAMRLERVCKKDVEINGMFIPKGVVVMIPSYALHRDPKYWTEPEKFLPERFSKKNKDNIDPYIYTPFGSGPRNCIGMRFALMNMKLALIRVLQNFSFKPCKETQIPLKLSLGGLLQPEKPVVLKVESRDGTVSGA

In a further data set the target is T2, CYP2E1 (Homo sapiens, UniProt P05181).
T2 construct: tissue Rild-biotech X008067; host or cells: human liver microsomes
T2 sequence (P05181 whole entry): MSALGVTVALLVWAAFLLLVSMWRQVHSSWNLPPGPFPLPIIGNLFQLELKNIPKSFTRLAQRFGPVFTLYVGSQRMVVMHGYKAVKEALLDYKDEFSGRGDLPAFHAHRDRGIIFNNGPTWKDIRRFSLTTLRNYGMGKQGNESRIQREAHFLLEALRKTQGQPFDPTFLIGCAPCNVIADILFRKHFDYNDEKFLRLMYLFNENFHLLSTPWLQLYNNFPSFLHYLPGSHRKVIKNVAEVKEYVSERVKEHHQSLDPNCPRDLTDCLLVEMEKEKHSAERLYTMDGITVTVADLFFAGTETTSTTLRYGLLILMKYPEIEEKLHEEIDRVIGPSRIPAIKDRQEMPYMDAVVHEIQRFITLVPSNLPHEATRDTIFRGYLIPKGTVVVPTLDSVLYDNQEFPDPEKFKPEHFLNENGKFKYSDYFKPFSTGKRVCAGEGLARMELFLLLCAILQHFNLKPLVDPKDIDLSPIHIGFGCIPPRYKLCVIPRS
In words: Specific inhibitor method in HLMs: diethyldithiocarbonate. It is filed as in vitro ADME. The settings on record: alkaloid 20 μM, DDTC 1 μM (CYP2E1), 37°C 60 min, P > 0.05. Here is the method:
(§3) To screen the CYP isoforms for aconitine, mesaconitine, and hypaconitine metabolism, we used known inhibitors of the metabolism of aconitine, mesaconitine, and hypaconitine in HLMs. ANF (CYP1A2: 1 μM; CAS: […]), SPE (CYP2C9: 1 μM; CAS: 526-08-9), DDTC (CYP2E1: 1 μM; CAS: 148-18-5), and KEN (CYP3A4: 1 μM; CAS: 65277-42-1) were all from EFEBIO Co., Ltd., which were incubated separately with aconitine, mesaconitine, and hypaconitine (20 μM), HLMs, and NADPH under the same incubation conditions as mentioned above. […] The hepatic metabolism rate of the incubation solution with no inhibitor was used as the negative control. The HLM (Rild-biotech, shanghai, China, X008067 ) mixtures were incubated at 37°C for 60 min. NADPH was preincubated for 5 min before it was added to the system. Precooled acetonitrile/methanol (800 μL, 1:1, v/v) was added to stop the incubation. […] Aconitine, mesaconitine, and hypaconitine standards of different concentrations were added to the incubation system to obtain the standard curve.

Data set [3] has as its target T1, CYP3A4. In words: Specific inhibitor method in HLMs: ketoconazole. Type of data set: in vitro ADME. The arrangement: tissue Rild-biotech X008067; host or cells: human liver microsomes. The settings on record: alkaloid 20 μM, KEN 1 μM (specific inhibitor for CYP3A), 37°C 60 min, n = 3. As to the method:
as §3
Target sequence in this assay (P08684 whole entry): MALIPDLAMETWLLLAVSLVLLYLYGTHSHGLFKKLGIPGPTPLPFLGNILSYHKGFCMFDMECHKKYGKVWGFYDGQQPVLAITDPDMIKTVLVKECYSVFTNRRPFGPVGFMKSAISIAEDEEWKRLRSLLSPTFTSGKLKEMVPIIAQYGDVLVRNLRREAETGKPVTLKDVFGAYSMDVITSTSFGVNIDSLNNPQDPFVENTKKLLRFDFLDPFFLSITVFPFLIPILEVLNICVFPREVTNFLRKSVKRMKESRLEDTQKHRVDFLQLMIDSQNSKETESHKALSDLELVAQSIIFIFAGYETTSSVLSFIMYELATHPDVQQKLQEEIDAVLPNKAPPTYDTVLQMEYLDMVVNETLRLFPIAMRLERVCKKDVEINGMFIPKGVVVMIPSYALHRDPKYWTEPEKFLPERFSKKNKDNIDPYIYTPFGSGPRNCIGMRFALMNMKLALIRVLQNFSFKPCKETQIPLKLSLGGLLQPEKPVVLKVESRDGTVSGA

Data set [4] has as its system CYP3A4. The arrangement: method as in PMID 23600156. The settings on record: concentration-dependent manner; cited from earlier work.
The target of the next data set is T3, recombinant human CYP1A2 (Homo sapiens, UniProt P05177).
T3 construct: purchased Corning 456203; host or cells: baculovirus infected insect cells (BTI-TN-5B1-4)
T3 sequence (P05177 2-516 limits assumed): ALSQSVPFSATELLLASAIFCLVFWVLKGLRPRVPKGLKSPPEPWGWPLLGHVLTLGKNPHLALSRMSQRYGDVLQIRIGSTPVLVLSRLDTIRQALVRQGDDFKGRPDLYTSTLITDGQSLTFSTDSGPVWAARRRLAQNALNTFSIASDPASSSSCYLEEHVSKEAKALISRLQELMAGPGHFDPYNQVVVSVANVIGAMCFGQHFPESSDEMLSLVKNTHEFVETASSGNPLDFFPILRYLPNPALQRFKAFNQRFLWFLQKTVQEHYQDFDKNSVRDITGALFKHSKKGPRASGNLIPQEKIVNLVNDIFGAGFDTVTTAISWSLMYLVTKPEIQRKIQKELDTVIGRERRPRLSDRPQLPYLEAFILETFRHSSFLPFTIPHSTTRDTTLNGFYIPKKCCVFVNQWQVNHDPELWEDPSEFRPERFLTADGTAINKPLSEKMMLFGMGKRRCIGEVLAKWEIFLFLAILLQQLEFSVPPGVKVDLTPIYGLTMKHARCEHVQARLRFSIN
The data set can be described thus: Kinetic analysis in recombinant human CYP1A2. Type of data set: in vitro ADME. The settings on record: substrate 5, 10, 20, 40 μM, 37°C 90 min, n = 3.
Source text: as §1, §2
The compound reaction velocity (V) is expressed as V = (C0 – Ct)/T/Cp, where C0 and Ct are the initial and final concentrations of aconitine, mesaconitine, or hypaconitine in the incubation solution, respectively, T is the incubation time (min), and Cp is the protein concentration (mg·mL^−1 or nmol). […] All values are expressed as the mean ± standard deviation (SD).

Setting [5] is: recombinant human CYP3A4, substrate 5, 10, 20, 40 μM, 37°C 90 min, n = 3.

For `CC(C)=CCCC(C)(O)[C@H]1CC[C@]2(C)[C@@H]1[C@H](O)C[C@@H]1[C@@]3(C)CC[C@H](O)C(C)(C)[C@@H]3CC[C@]12C` (stereo in doubt) [protopanaxadiol], the “Effect on PXR” value with PXR is “no obvious effects”.

`CC(C)=CCC[C@](C)(O[C@@H]1O[C@H](CO)[C@@H](O)[C@H](O)[C@H]1O)[C@H]1CC[C@]2(C)[C@@H]1[C@H](O)C[C@@H]1[C@@]3(C)CC[C@H](O[C@@H]4O[C@H](CO)[C@@H](O)[C@H](O)[C@H]4O)C(C)(C)[C@@H]3CC[C@]12C` [Ginsenoside F2]: the “Effect on PXR” value with PXR is “moderate inductive effects”.

Regarding `CC(=O)N1CCN(c2ccc(OCC3COC(Cn4ccnc4)(c4ccc(Cl)cc4Cl)O3)cc2)CC1` (stereo not drawn) [Ketoconazole], the “AUC(0-t) of midazolam” value with CYP3A4 [1] (control 2.23 ± 0.64) is listed as 4.19 ± 0.14^∗∗ mg^.L^-1.h. In addition, the “AUC(0-∞) of midazolam” value in the data set with CYP3A4 [1] (control 2.30 ± 0.59) is listed as 4.25 ± 0.15^∗∗ mg^.L^-1.h. Further, in the data set with CYP3A4 [1] (control 4.66 ± 1.43), the CLz of midazolam is 2.36 ± 0.08^∗∗ L^.h^-1.kg^−1. Moreover, the Cmax of midazolam with CYP3A4 [1] (control 4.84 ± 1.89) is 10.48 ± 0.63^∗∗ mg^.L^−1.

Regarding `CC1(C)CCC[C@](C)([C@H]2CC[C@]3(C)[C@@H]2[C@H](O)C[C@@H]2[C@@]4(C)CC[C@H](O)C(C)(C)[C@@H]4[C@@H](O)C[C@]23C)O1` [Panaxotriol], the “Effect on PXR” value with PXR is “inhibitory effects”.

For the compound `CC(C)=CCC[C@](C)(O)[C@H]1CC[C@]2(C)[C@@H]1[C@H](O)C[C@@H]1[C@@]3(C)CC[C@H](O[C@@H]4O[C@H](CO)[C@@H](O)[C@H](O)[C@H]4O[C@@H]4O[C@H](CO)[C@@H](O)[C@H](O)[C@H]4O)C(C)(C)[C@@H]3CC[C@]12C` [Rg3], in the data set on PXR, the “Effect on PXR” value was “no obvious effects”.

As to `CC(C)=CCC[C@](C)(O)[C@H]1CC[C@]2(C)[C@@H]1[C@H](O)C[C@@H]1[C@@]3(C)CC[C@H](O[C@@H]4O[C@H](CO)[C@@H](O)[C@H](O)[C@H]4O)C(C)(C)[C@@H]3CC[C@]12C` [Rh2], the “Effect on PXR” value in the data set with PXR is on record as “no obvious effects”.

For orientation: Km means the concentration of substrate that gives half-maximal velocity. `CCN1C[C@]2(COC)[C@H](O)C[C@H](OC)[C@@]34[C@@H]5C[C@@]6(O)[C@H](OC(=O)c7ccccc7)[C@@H]5[C@@](OC(C)=O)([C@@H]([C@H](OC)[C@H]23)[C@@H]14)[C@@H](O)[C@@H]6OC` [aconitine]: the Michaelis constant (Km) at 90 min at CYP3A4 [2] (human) was 10.1 ± 3.26 µM. For the same compound, the “in vitro mean intrinsic clearance rate by CYP3A4” value at CYP3A4 [2] (recombinant human CYP3A4) came to 0.0119 mL·nmol CYP^−1·min^−1. Further, the “Vmax of CYP3A4” value at CYP3A4 [2] (setting [5]) was 0.12 ± 0.01 nmol·mg protein^−1·min^−1. At CYP2E1, the “Hepatic metabolism rate after incubation with DDTC, compared with control” value (shortened to “Hepatic metabolism rate … compared with control”) was “no significant change”. In addition, the “Hepatic metabolism rate when incubated with KEN, compared with negative control” value at CYP3A4 [3] worked out at 60.37 ± 5.01%.

With `CC(C)=CCC[C@](C)(O[C@@H]1O[C@H](CO[C@@H]2OC[C@@H](O)[C@H](O)[C@H]2O)[C@@H](O)[C@H](O)[C@H]1O)[C@H]1CC[C@]2(C)[C@@H]1[C@H](O)C[C@@H]1[C@@]3(C)CC[C@H](O[C@@H]4O[C@H](CO)[C@@H](O)[C@H](O)[C@H]4O[C@@H]4O[C@H](CO)[C@@H](O)[C@H](O)[C@H]4O)C(C)(C)[C@@H]3CC[C@]12C` [ginsenoside Rb3], in the data set on PXR, the “Effect on PXR” value is listed as “inhibitory effects”.

Take `CC(C)=CCC[C@](C)(O[C@@H]1O[C@H](CO)[C@@H](O)[C@H](O)[C@H]1O)[C@H]1CC[C@]2(C)[C@@H]1[C@H](O)C[C@@H]1[C@@]3(C)CC[C@H](O)C(C)(C)[C@@H]3[C@@H](O[C@@H]3O[C@H](CO)[C@@H](O)[C@H](O)[C@H]3O)C[C@]12C` [ginsenoside Rg1]: the “Effect on PXR” value with PXR is “inhibitory effects”. Further, in the data set on CYP3A4 [4], the “CYP3A4 mRNA expression” value is listed as “downregulated”.

Regarding `CC(C)=CCC[C@](C)(O)[C@H]1CC[C@]2(C)[C@@H]1[C@H](O)C[C@@H]1[C@@]3(C)CC[C@H](O)C(C)(C)[C@@H]3[C@@H](O[C@@H]3O[C@H](CO)[C@@H](O)[C@H](O)[C@H]3O[C@@H]3O[C@@H](C)[C@H](O)[C@@H](O)[C@H]3O)C[C@]12C` [ginsenoside Rg2], the “Effect on PXR” value in the data set with PXR was “inhibitory effects”.

Take `COC[C@@]12CC[C@H](OC)[C@]34C(C([C@H](OC)[C@H]13)[C@]1(OC(C)=O)[C@H]3[C@@H](OC(=O)c5ccccc5)[C@](O)(C[C@H]34)[C@@H](OC)[C@@H]1O)N(C)C2` [hypaconitine]: the “in vitro mean intrinsic clearance rate by CYP3A4” value at CYP3A4 [2] (recombinant human CYP3A4) is 0.0091 mL·nmol CYP^−1·min^−1. At CYP2E1, the “Hepatic metabolism rate … compared with control” value is on record as “no significant change”. Further, the “Hepatic metabolism rate when incubated with KEN, compared with negative control” value at CYP3A4 [3] is listed as 10.11 ± 6.19%.

In the case of `COC[C@]12CN(C)[C@@H]3[C@@H]4[C@H](OC)[C@H]1[C@@]3([C@@H](OC)C[C@H]2O)[C@@H]1C[C@@]2(O)[C@H](OC(=O)c3ccccc3)[C@@H]1[C@]4(OC(C)=O)[C@@H](O)[C@@H]2OC` [mesaconitine], the “in vitro mean intrinsic clearance rate by CYP3A4” value at CYP3A4 [2] (recombinant human CYP3A4) was 0.0056 mL·nmol CYP^−1·min^−1. Besides, at CYP3A4 [2] (setting [5]), the Km turned out to be 131 ± 99.7 µM and the “Vmax of CYP3A4” value came out at 0.73 ± 0.44 nmol·mg protein^−1·min^−1. On CYP2E1, the “Hepatic metabolism rate … compared with control” value is “no significant change”. The “Hepatic metabolism rate when incubated with KEN, compared with negative control” value on CYP3A4 [3] came to 21.67 ± 19.64%. Also, on recombinant human CYP1A2, the “Vmax of CYP1A2” value is 0.27 ± 6.57 nmol·mg protein^−1·min^−1.

In the case of `CC(C)=CCC[C@](C)(O)[C@H]1CC[C@]2(C)[C@@H]1[C@H](O)C[C@@H]1[C@@]3(C)CC[C@H](O)C(C)(C)[C@@H]3[C@@H](O)C[C@]12C` [protopanaxatriol], the “Effect on PXR” value with PXR is recorded as “moderate inductive effects”.

Consider ginsenoside Rf1, for which the “Effect on PXR” value in the data set on PXR is “no obvious effects”.

Consider pseudoginsenoside F11, for which, in the data set with PXR, the “Effect on PXR” value is “inhibitory effects”.
